The structures appear in SMILES notation.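 96-well plates; 48 h exposure; 5 concentrations. Endpoints by linear interpolation between flanking doses. Not reached: highest tested concentration assigned. Here, GI50 denotes the concentration required for 50% inhibition of growth. TGI denotes the concentration required for complete inhibition of growth.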 Where a SMILES comes first, the peptide text is derived from it. The star is where a group is joined. Boc = CC(C)(C)OC(=O)*; tBu = CC(C)(C)*

What all share (assay): inhibition of tumour cell growth, NCI panel, 48 h
Experiment [1] relates to CAKI-1 renal.
In experiment [2] the test system is HCC-2998 colon.
The subject of experiment [3] is HL-60(TB) leukemia.
For experiment [4], the system named is HT29 colon.
The subject of experiment [5] is MDA-MB-231 breast.
Experiment [6] deals with MDA-MB-435.
Experiment [7] deals with OVCAR-5 ovarian.
Experiment [8] deals with SF-268 CNS.
For experiment [9], the system named is SF-539 CNS.
Experiment [10] has as its system UO-31 renal.

Turning to `O=S(=O)(/N=C(\NO)Nc1ccc(Cl)cc1)c1cc(S(=O)(=O)c2ccccc2)cs1`, the TGI in experiment [1] was 46.7 µM; in experiment [2] it was 27.6 µM; in experiment [3] it was 7.19 µM; in experiment [4], 47 µM; in [5], 56.1 µM; in experiment [6], 29.9 µM. Also, the TGI in experiment [7] was 42.5 µM; in experiment [8], 37 µM; in experiment [9], 32.4 µM; in experiment [10], 27.6 µM.

With `CC(=O)Nc1sccc1S(=O)(=O)c1ccc(Cl)cc1`, the TGI in experiment [1], in experiment [2], in experiment [3], in experiment [4], in [5] and in experiment [6] was greater than 100 µM in each case. The TGI in [7], in experiment [8], in [9] and in [10] was greater than 100 µM each time.

With `CC(=O)O[C@H]1C[C@H]2[C@@H]([C@H](OC(C)=O)C[C@@H]3CC4(CC[C@@]32C)OOC2(CCCCC2)OO4)[C@@H]2CC[C@H]([C@H](C)CCC(=O)O)[C@@]12C`, the TGI stood at 25.3 µM in [1]; 25 µM in experiment [2]; 15.1 µM in experiment [3]; 25.3 µM in experiment [4]; 34.1 µM in experiment [5]; 18.9 µM in [6]. Also, the TGI in experiment [7] was 29.8 µM; in experiment [8], 26.8 µM; in experiment [9] it was 20.3 µM; in [10] it was 11 µM.

On to `CCCCC1Cc2cc(OC)ccc2-c2n1c1cc(OC)ccc1[n+]2C` (stereo not given) (tested in a mixture with another compound), for which the TGI was greater than 100 µM in experiment [1]; 8.51 µM in experiment [2]; 1.71 µM in experiment [3]; greater than 29.2 µM in experiment [4]; 20.6 µM in experiment [5]; 3.79 µM in experiment [6]. Further, the TGI in [7] is 68.2 µM; in experiment [8], 6.09 µM; in experiment [9], greater than 44.9 µM; in experiment [10], 30.9 µM.

As to `O=C(O)Cc1ccc(Oc2nc3ccccc3nc2-c2ccccc2)cc1`, the TGI was greater than 100 µM in [1]; 99.5 µM in experiment [2]; greater than 100 µM in [3]; greater than 100 µM in experiment [4]; greater than 100 µM in experiment [5]; greater than 100 µM in experiment [6]. Also, the TGI in [7], in experiment [8], in [9] and in experiment [10] was greater than 100 µM in each case.

With `Cc1cc(/N=C/c2ccc(Cl)cc2)n(-c2ccccc2)n1`, the TGI in experiment [1] was greater than 100 µM; in [2] it was 71 µM; in [3] it was 91.5 µM; in [4], greater than 100 µM; in experiment [5] it was greater than 100 µM; in [6] it was greater than 100 µM. In addition, the TGI in experiment [7], in experiment [8], in experiment [9] and in experiment [10] was greater than 100 µM throughout.

With `Cn1c(SCc2c[nH]c3ccccc23)nnc1-c1ccc(Cl)cc1Cl`, the TGI in [1] is greater than 100 µM; in experiment [2] it was 26.1 µM; in [3], 25.6 µM; in experiment [4], 35.5 µM; in experiment [5], 66.3 µM; in experiment [6], 12 µM. Moreover, the TGI in experiment [7] was 86.7 µM; in experiment [8], greater than 100 µM; in experiment [9] it was 17.7 µM; in [10], 82.9 µM.

`C=C1C(=O)O[C@@H]2[C@H]1C[C@H](I)[C@@]1(C)CC[C@H](O1)[C@](C)(I)CCCC(C)[C@@H]2O` (stereo not given in full): the TGI in [1] was 4.19 µM; in [2], 25.2 µM; in experiment [3] it was 4.54 µM; in experiment [4], 4.61 µM; in [5] it was 16.3 µM; in [6], 11.6 µM. In addition, the TGI in [7] was determined as 26.5 µM; in experiment [8] it was 27.2 µM; in experiment [9], 4.25 µM; in experiment [10], 7.74 µM.

Turning to `CO[C@]12C[C@@H](CNC(=O)c3cc(Br)c[nH]3)O[C@H]1NC(=O)N2`, the TGI in [1], in experiment [2], in [3], in experiment [4], in [5] and in [6] was greater than 100 µM each time. The TGI in experiment [7], in [8], in experiment [9] and in experiment [10] was greater than 100 µM each time.

For `Cc1cc(NS(=O)(=O)c2ccc(NC(=O)c3ccc4nc5ccccc5c(Nc5ccc(S(=O)(=O)Nc6cc(C)on6)cc5)c4c3)cc2)no1`, the TGI in [1], in experiment [2], in [3], in experiment [4], in [5] and in experiment [6] was greater than 50 µM each time. Also, the TGI in experiment [7], in experiment [8], in [9] and in experiment [10] was greater than 50 µM throughout.

As for `O=C(O)c1ccccc1CC(Cc1ccccc1)C(=O)O` (stereo not given), the TGI in experiment [1], in experiment [2], in experiment [3], in [4], in [5] and in [6] was greater than 100 µM in each case. Also, the TGI in experiment [7], in [8], in experiment [9] and in experiment [10] was greater than 100 µM throughout.

In the case of `CCOC(=O)C1=C(C)N(CC(C)C)C2(O)C(OC)CC(=O)C3C(=O)N(c4ccccc4)C(=O)C132` (stereo not given), the TGI in experiment [1] is 98.7 µM; in [2], 53.8 µM; in experiment [3], 69.2 µM; in experiment [4] it was 57.1 µM; in experiment [5], greater than 100 µM; in experiment [6], greater than 100 µM. Besides, the TGI in experiment [7] is greater than 100 µM; in experiment [8], greater than 100 µM; in experiment [9] it was greater than 100 µM; in experiment [10], 39.2 µM.

`Clc1ccc(Cn2cc(/C=N/n3cnnc3)c3ccccc32)cc1`: the TGI was greater than 100 µM in experiment [1]; 31.4 µM in experiment [2]; greater than 100 µM in experiment [3]; greater than 100 µM in experiment [4]; 74.5 µM in experiment [5]; greater than 100 µM in experiment [6]. Besides, the TGI in experiment [7] was 42.5 µM; in experiment [8] it was greater than 100 µM; in [9], greater than 100 µM; in [10], greater than 100 µM.

On to `OC1CSCCSCCCSCCSC1`, for which the TGI in experiment [1], in [2], in experiment [3], in [4], in [5] and in experiment [6] was greater than 100 µM in each case. Also, the TGI in experiment [7], in experiment [8], in experiment [9] and in experiment [10] was greater than 100 µM each time.

Turning to `CC1=NNC(=O)[C@H]2[C@H]1CCC1[C@@H]2CC[C@]2(C)[C@@H](O)CC[C@@H]12` (stereo not given in full), the TGI in experiment [1], in [2], in [3], in [4], in experiment [5] and in [6] was greater than 100 µM throughout. Besides, the TGI in [7], in [8], in [9] and in experiment [10] was greater than 100 µM throughout.

For the molecule `CN(CCCNC(=O)c1c2ccc3ccccc3c2nn1C)CCCNC(=O)c1c2ccc3ccccc3c2nn1C`, the TGI came out at 15.3 µM in [1]; 3.44 µM in experiment [2]; 29.8 µM in [3]; 6.93 µM in [4]; 25.8 µM in experiment [5]; 6.09 µM in [6]. Further, the TGI in experiment [7] stood at 25.4 µM; in experiment [8] it was 25.6 µM; in experiment [9], 17.8 µM; in experiment [10], 19.9 µM.

As for `CCN(CCCl)c1cc(CN(C)C)cc(NC(=O)c2cc(C(=O)Nc3cc(CN(C)C)cc(N(CC)CCCl)c3)n(C)n2)c1`, the TGI was determined as 2.72 µM in experiment [1]; 2.11 µM in [2]; 4.04 µM in experiment [3]; 1.02 µM in experiment [4]; 4.06 µM in [5]; 1.2 µM in experiment [6]. Further, the TGI in experiment [7] was found to be 9.36 µM; in [8] it was 1.56 µM; in experiment [9], 1.63 µM; in [10] it was 7.42 µM.

In the case of `COC(=O)[C@]1(C)[C@H]2C[C@H]3O[C@H]4[C@H](O)[C@@H](O)OC(CC(O)C(C5=CC(=O)OC5)C(C5=CC(=O)OC5)C(O)CC56CCCCC7[C@@H](C)[C@H](C[C@H]8[C@](C)(C(=O)OC)[C@H](O)CC[C@]78C)O[C@H]([C@@H](O)[C@H](O)O5)[C@H]6O)(CCCCC([C@@H]3C)[C@]2(C)CC[C@@H]1O)[C@H]4O` (stereo not given in full), the TGI in [1] was determined as 0.849 µM; in [2], 2.94 µM; in [3], 0.348 µM; in [4], 0.825 µM; in experiment [5], 1.89 µM; in [6] it was 1.1 µM. Besides, the TGI came out at 3.14 µM in experiment [7], 0.212 µM in [8], 0.321 µM in experiment [9] and 0.442 µM in experiment [10].

Regarding `COc1cccc(/C=C2/S/C(=N/Nc3nc(C)c(C(C)=O)s3)NC2=O)c1O`, the TGI in [1] is greater than 100 µM; in experiment [2] it was greater than 100 µM; in experiment [3], 46 µM; in [4], greater than 100 µM; in experiment [5], 44.8 µM; in experiment [6] it was greater than 100 µM. Moreover, the TGI in experiment [7] was 94.2 µM; in experiment [8], greater than 100 µM; in experiment [9], greater than 100 µM; in [10] it was 51.3 µM.

For `N=C(N)c1ccc(N=Nc2c(O)ccc3cc(O)ccc23)cc1`, the TGI in [1], in [2], in experiment [3], in experiment [4], in experiment [5] and in experiment [6] was greater than 100 µM throughout. Moreover, the TGI in experiment [7], in [8], in [9] and in experiment [10] was greater than 100 µM throughout.

Consider `O=C1c2ccccc2/C=C\C(c2ccccc2)=N/N1c1ccccc1Cl`, for which the TGI is 54.5 µM in experiment [1]; greater than 100 µM in experiment [2]; 54.8 µM in experiment [3]; 37 µM in experiment [4]; 49.2 µM in [5]; 16.8 µM in experiment [6]. Further, the TGI is greater than 100 µM in [7], greater than 100 µM in experiment [8], greater than 100 µM in experiment [9] and 98.8 µM in experiment [10].

Turning to `CCN(CC)C(=S)SSCCO`, the GI50 in experiment [1] is 13.6 µM; in experiment [2] it was 18.9 µM; in experiment [3], 2.17 µM; in experiment [4] it was 17 µM; in experiment [5] it was 15.3 µM; in [6], 15.6 µM. For the same molecule, the GI50 was 17.7 µM in [7], 19 µM in [8], 15.7 µM in [9] and 15.8 µM in experiment [10]. Further, the TGI in experiment [1] is 27.5 µM; in [2], 43.3 µM; in [3] it was 8.96 µM; in [4] it was 30.8 µM; in experiment [5] it was 30.3 µM; in [6], 31.7 µM. The TGI in experiment [7] was 31.5 µM; in experiment [8], 37.1 µM; in [9], 29.1 µM; in experiment [10], 32.3 µM.

For the molecule `COCCOCCOCCC(=O)NC1CC2CCC1(C)C2(C)C` (stereo not given), the TGI in experiment [1], in experiment [2], in experiment [3], in experiment [4], in experiment [5] and in experiment [6] was greater than 100 µM each time. For the same molecule, the TGI in [7], in [8], in experiment [9] and in experiment [10] was greater than 100 µM in each case.

For `CC(OC(C)(C)C)C(NC(=O)C(N)CCCCNC(=O)OC(C)(C)C)C(=O)NC(Cc1ccccc1)C(=O)O` (stereo not given) (H-Lys(Boc)-Thr(tBu)-Phe-OH; configuration not given here), the TGI in experiment [1], in experiment [2], in [3], in experiment [4], in experiment [5] and in [6] was greater than 100 µM in each case. Besides, the TGI in experiment [7], in experiment [8], in experiment [9] and in experiment [10] was greater than 100 µM throughout.
